According to patent US20170042890A1, “METHODS OF REDUCING DECLINE IN VITAL CAPACITY” (Cytokinetics, Inc., priority 2014, published 2017):

Tested on: patients with ALS
Assay: BENEFIT-ALS clinical trial: treatment-emergent adverse events, discontinuations, deaths
Format: in vivo, human
Description: BENEFIT-ALS was a multi-national, randomized, stratified, double-blind, placebo-controlled, parallel-group study of tirasemtiv in patients with ALS. The study consisted of a screening period, an open-label/lead-in period, and a double-blind treatment period. Following screening, eligible patients received open-label tirasemtiv, 125 mg BID, for 7 days. Patients who tolerated the 7-day lead-in period were randomized in a 1:1 ratio to tirasemtiv or placebo. Over the first 3 weeks of double-blind treatment, patients randomized to tirasemtiv had their TDD up-titrated as follows: 250 mg for 7 days, then 375 mg for 7 days, then 500 mg for 7 days. […] However, in such cases, dose escalation was re-attempted at least one additional time. The highest tolerable tirasemtiv dose for each individual patient was the dose that patient received for the remaining 9 weeks (i.e., the maximum tolerated dose [MTD] phase) of the study. Patients randomized to placebo underwent a corresponding dummy dose titration.
A total of 711 patients were enrolled in the study and began treatment with open-label tirasemtiv 125 mg BID. After the one-week open-label phase, 302 patients were randomized to placebo and 303 to tirasemtiv. Of these randomized patients, 269 in the placebo group and 204 in the tirasemtiv group completed the study, while 33 on placebo and 99 on tirasemtiv prematurely discontinued study drug, primarily due to AEs (12 patients on placebo 78 patients on tirasemtiv) and patient withdrawal of consent (7 placebo, 12 tirasemtiv).
Safety data presented were based on the safety analysis set, defined as all patients who received at least 1 dose of double-blind study drug. Of the 605 randomized patients, 596 (295 placebo, 301 tirasemtiv) received at least 1 dose of double-blind study drug and were included in the safety analysis set. Data for the primary and secondary efficacy endpoints were analyzed with the Modified FAS. This analysis set included all patients who received at least 1 dose of double-blind study drug and had at least 1 efficacy assessment during the double-blind treatment period, and excluded 156 patients who were randomized in blocks containing patients affected by a study drug assignment error in which 58 patients randomized to and treated with double-blind tirasemtiv were dispensed double-blind placebo instead. Based on these criteria, the Modified FAS consisted of 388 patients (210 placebo, 178 tirasemtiv).
An overview of treatment-emergent AEs during the double-blind phase of the study is provided in Table 4, and commonly reported AEs during the double-blind phase are summarized in Table 5. Serious AEs during the double-blind phase of the study were reported for 16 patients (5.4%) in the placebo group and 27 patients (9.0%) in the tirasemtiv group. By the Medical Dictionary for Regulatory […] (MedDRA) system organ class, the most commonly reported SAEs involved respiratory, thoracic and mediastinal disorders (2.0% placebo, 1.3% tirasemtiv). By MedDRA preferred term, AEs that were reported for more than 1 patient included the following: dysphagia (0.3% placebo, 0.7% tirasemtiv), pneumonia (0.3% placebo, 0.7% tirasemtiv), confusional state (0% placebo, 0.7% tirasemtiv), delirium (0% placebo, 0.7% tirasemtiv), and respiratory failure (1.0% placebo, […]).

[1] = double-blind phase, N=301, MedDRA preferred term
[2] = double-blind phase, N=301, NCI CTCAE
[3] = double-blind phase, N=301, listed as tirasemtiv
[4] = double-blind phase, reported for more than 1 patient

Question: What does the source list for `C#Cc1cnc2nc(O)n(C(CC)CC)c2n1` [Tirasemtiv, 6-ethynyl-1-(pentan-3-yl)-1H-imidazo[4,5-b]pyrazin-2(3H)one]?
Answer: Patients who terminated treatment during the first 4 weeks of the double-blind phase (71/97 of early terminations): 73.2%; Confusional state leading to early discontinuation (double-blind phase): 5.0%; Dizziness leading to early discontinuation (double-blind phase): 9.3%; Fatigue leading to early discontinuation (double-blind phase): 5.0%; Gastrointestinal (GI) AEs, % of patients (double-blind phase): 43.5%; Gastrointestinal (GI) AEs, No. of patients (double-blind phase): 131; SAEs: respiratory, thoracic and mediastinal disorders (MedDRA system organ class) (double-blind phase): 1.3%; % of patients with AE leading to early termination (double-blind phase, N=301): (25.9%); % of patients with SAE (double-blind phase, N=301): (9.0%); Deaths, % of patients (double-blind phase, N=301): (0.7%); Deaths, No. of patients (double-blind phase, N=301): 2; No. of patients with AE leading to early termination (double-blind phase, N=301): 78; No. of patients with SAE (double-blind phase, N=301): 27; AE Asthenia [1]: 15.9%; AE Confusional state [1]: 11.0%; AE Constipation [1]: 6.3%; AE Contusion [1]: 7.3%; AE Decreased appetite [1]: 10.0%; AE Diarrhea [1]: 7.3%; AE Dizziness [1]: 50.8%; AE Fatigue [1]: 33.2%; AE Headache [1]: 17.9%; AE Insomnia [1]: 10.3%; AE Muscle spasms [1]: 15.0%; AE Muscular weakness [1]: 11.3%; AE Nasopharyngitis [1]: 6.3%; AE Nausea [1]: 21.9%; AE Respiratory failure [1]: 6.3%; AE Somnolence [1]: 13.0%; % of patients with Grade 3 AE [2]: (20.3%); % of patients with Grade 4 AE [2]: (3.0%); % of patients with Grade 5 AE [2]: (0.7%); No. of patients with Grade 3 AE [2]: 61; No. of patients with Grade 4 AE [2]: 9; No. of patients with Grade 5 AE [2]: 2; % of patients with SAE [3]: 9.0%; Deaths, % of patients [3]: 0.7%; Serious AE confusional state [4]: 0.7%; Serious AE delirium [4]: 0.7%; Serious AE dysphagia [4]: 0.7%; Serious AE pneumonia [4]: 0.7%; Serious AE respiratory failure [4]: 0.5%; No. of patients with any treatment-emergent AE (double-blind phase, safety set N=301): 291; Patients who prematurely discontinued study drug (of 303 randomized to tirasemtiv): 99
